In this assay the target is Elongin-B/Elongin-C/von Hippel-Lindau disease tumor suppressor (Homo sapiens, UniProt P40337+Q15370+Q15369). In words: Displacement of FAM-DEALAHyp-YIPD from 6xHis-tagged VHL (1 to 213)/elongins-B/elonginC (unknown origin) expressed in Escherichia coli BL21 after 1 min by fluorescence polarization assay. For orientation: In fluorescence polarisation assays a small probe gives low polarisation when free and higher when bound to something large.

Broadly, the IC50 is the midpoint of a concentration-inhibition curve.

Chain of Elongin-B/Elongin-C/von Hippel-Lindau disease tumor suppressor (P40337 whole entry, looked up): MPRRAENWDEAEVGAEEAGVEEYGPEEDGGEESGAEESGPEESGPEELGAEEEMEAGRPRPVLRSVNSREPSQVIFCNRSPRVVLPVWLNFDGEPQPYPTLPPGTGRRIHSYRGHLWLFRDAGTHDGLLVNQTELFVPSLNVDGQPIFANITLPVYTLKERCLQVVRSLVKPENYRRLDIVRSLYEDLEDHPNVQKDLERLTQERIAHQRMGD
Chain of Elongin-B/Elongin-C/von Hippel-Lindau disease tumor suppressor (Q15369 whole entry, looked up): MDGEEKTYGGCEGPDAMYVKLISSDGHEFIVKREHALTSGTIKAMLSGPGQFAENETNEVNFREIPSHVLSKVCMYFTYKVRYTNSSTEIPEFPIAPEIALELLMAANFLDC
Chain of Elongin-B/Elongin-C/von Hippel-Lindau disease tumor suppressor (Q15370 whole entry, looked up): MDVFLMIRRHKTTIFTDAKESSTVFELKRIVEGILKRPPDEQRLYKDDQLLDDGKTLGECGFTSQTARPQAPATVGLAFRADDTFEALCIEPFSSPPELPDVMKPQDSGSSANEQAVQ

In turn, `Cc1cc(CC(=O)N2C[C@H](O)C[C@H]2C(=O)NCc2cccc(Cl)c2)on1` came in with an IC50 of 117 µM.

Source of the values: BindingDB's records for doi:10.1016/j.bmcl.2014.03.095 (University of Utah, 2014).
